The subject of data set [1] is MCF-7 (HTB-22, low metastatic breast adenocarcinoma) cells. Kind of data set: Cell proliferation assay, MCF-7 low metastatic breast adenocarcinoma cells. In kind it is cell-based, human. To be noted: another experiment; only at high doses effective.
Data set [2] in a line: Stability of activity after dissolving in solvent.
The test system of data set [3] is MCF-7 and MDA-MB-231 cells. Nature of the data set: Anticancer activity in vitro, summary statements for breast cancer cells. Format: cell-based, human. As to conditions: MCF-7 and MDA-MB-231 in vitro.
Data set [4] deals with MCF12A (CRL#10782, normal mammary epithelial) cells. Kind of data set: Cell proliferation assay, MCF12A normal mammary epithelial cells. As to conditions: another experiment.

On to (−)-epigallocatechin gallate [EGCG], for which the “dose at which effective on MCF-7” value in data set [1] was 9.2 µg/mL. Also, the “time to loss of activity” value in data set [2] is at most 1 h. The “dose at which active / effective” value in data set [3] was 1 to 40 µg/mL. The “inhibition of normal MCF-12A cells (in words)” value in data set [4] (5.0 μg/ml) and in data set [4] (40 μg/ml) was “inhibited” each time.

The values are drawn from US8143308B2, “Synthesis of oligo/poly(catechins) and methods of use” (University of Massachusetts Lowell, priority 2005, dated 2012).
